Laboratory results from US20120253470A1, “COMPOSITIONS FOR BONE TISSUE REPAIR AND USES THEREOF” (PRESIDENT AND FELLOWS OF HARVARD COLLEGE, priority 2011, published 2012).

Assays:
[1] = test system: segmental femur defect; assay: Repair of long bone (segmental femur) defect in mice; assay type: in vivo, C57/BI/6 wild-type mice
Protocol: (§1) The model animals used in this investigation were 10 week-old, skeletally mature, male C57/BI/6 wild-type mice. Mice are anesthetized by intramuscular injection with ketamine (7.5 mg/100 g body weight and xylazine (5-10 mg/kg body weight). The skin is shaved with an electric device and then scrubbed with a povidone-iodine scrub (e.g., Betadine®) and 70% alcohol, taking care to scrub from the center of the site toward the periphery. The site is then rinsed with 70% alcohol. At least three alternating preparations of germicidal scrub and rinse are performed. Finally, the area is draped with sterile drapes, which not only help to prevent contaminants from entering the surgical field, but also provide a sterile area on which to lay sterile instruments during surgery.
Full-thickness flaps are utilized in order to gain access to the femur. A roughly 5 mm length segmental femur defect is created on the C57/BI/6 mice. Once the defect has been created all mice received cell-free grafts. Control mice received no additional treatment, while the second group of mice received treatment with prom-1 #237. Soft tissues are closed with sutures. After the surgery, the animals are monitored until fully alert and monitoring continues thereafter for any issues related to discomfort, pain or infection. […] Medication to control pain is also delivered right after surgery and if detected subsequently. […] The animal is monitored continuously until it regains sternal recumbence and is capable of holding its head up, and is returned to its regular cage only when it is alert, mobile and breathing normally. […]
(§2) Post-surgical observations include a minimum daily observation, including weekends and holidays, of the condition of the animal and the surgical site. […] Pain/distress is monitored by monitoring the physiological parameters and behavioral responses although distress is more difficult to define and identify than pain. […] The animals are evaluated at day 14 after the creation of the defect to determine the extent of repair and regeneration.

[2] = test system: craniotomy defect of the calvaria; assay: Repair of calvarial bone defect in mice; assay type: in vivo, C57/BI/6 wild-type mice; conditions: prom-1 #237 added to composition containing FDBA
Protocol: as §1, with “One of the most common models used to test bone repair methods and compositions is defects in the calvarial bone in a model organism. Mice, rats, and rabbits are all frequently used in this model of flat bone repair. The model” for “The model”, “weight). The calvaria skin is” for “weight). The skin is”
Full-thickness flaps are utilized in order to gain access to the calvaria. […] After the surgery, the animals are monitored until fully alert and monitoring continues thereafter for any issues related to discomfort, pain or infection. […] Medication to control pain is also delivered right after surgery and if detected subsequently. […] The animal is monitored continuously until it regains sternal recumbence and is capable of holding its head up, and is returned to its regular cage only when it is alert, mobile and breathing normally. […]
as §2, with “56” for “14”

[3] = femur defect with cell-free graft, day 14

Q: How did the “ability of existing mouse cells to colonize the scaffold material and repair a large defect in the long bone” value [1, 3] turn out when “DRVQRQTTTVVA (SEQ ID NO: 35) [prom-1 #237]” was run?
A: greatly increased

Q: What about the “total extent of recovery” value [1, 3] of the same sequence?
A: markedly improved

Q: What about the “new bone growth / callus formation at the defect (FIG. 1B)” value ([1]; roughly 5 mm segmental femur defect, given in addition to cell-free graft, evaluated at day 14, versus graft only) of the same sequence?
A: significant callus formation

Q: And the time to recovery [2]?
A: significantly reduced

Q: And the “ability of existing mouse cells to colonize the FDBA scaffold material and repair a large defect in the calvarial flat bone” value ([2]; day 56)?
A: greatly increases

Q: What about the “total extent of recovery” value ([2]; day 56) of the same sequence?
A: markedly improved
